Results: US20250171438A1 (Agios Pharmaceuticals, Inc., priority 2022, published 2025)

Each compound was assayed against T1, human PAH with the R408W mutation (Homo sapiens, UniProt P00439, R408W) (assay: Cell Based Phenylalanine Flux Assay). Details: A375 cells expressing human R408W PAH; 24 hrs compound incubation; 13C-Tyrosine by LC-MS; average where tested multiple times; read-out: AC50.
T1 construct: expressed in transfected cells
T1 sequence (P00439 1-452 R408W): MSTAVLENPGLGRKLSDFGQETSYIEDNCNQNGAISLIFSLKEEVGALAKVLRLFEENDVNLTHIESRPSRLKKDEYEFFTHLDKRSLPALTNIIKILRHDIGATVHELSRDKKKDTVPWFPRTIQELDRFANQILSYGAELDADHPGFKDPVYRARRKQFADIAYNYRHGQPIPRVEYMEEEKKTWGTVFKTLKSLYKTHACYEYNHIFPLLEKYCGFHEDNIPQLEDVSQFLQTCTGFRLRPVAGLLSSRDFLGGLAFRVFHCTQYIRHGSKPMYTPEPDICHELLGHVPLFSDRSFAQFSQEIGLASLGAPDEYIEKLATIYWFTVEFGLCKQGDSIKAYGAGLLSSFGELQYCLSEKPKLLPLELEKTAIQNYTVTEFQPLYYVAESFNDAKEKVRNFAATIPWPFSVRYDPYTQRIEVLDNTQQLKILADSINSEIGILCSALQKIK

Row | Compound | AC50 [µM]
1 | O=C(c1ccon1)N1CCc2[nH]cnc2[C@@H]1c1nc2ccc(Cl)cc2[nH]1 [Example 970, (R)-(4-(6-chloro-1H-benzo[d]imidazol-2-yl)-6,7-dihydro-1H-imidazo[4,5-c]pyridin-5(4H)-yl)(isoxazol-3-yl)methanone] | 1 to 5
2 | Cc1nc(-c2cnn(C)c2)oc1C(=O)N1CCc2[nH]cnc2[C@@H]1c1nc2ccccc2s1 [Example 1375, (R)-(4-(benzo[d]thiazol-2-yl)-6,7-dihydro-1H-imidazo[4,5-c]pyridin-5(4H)-yl)(4-methyl-2-(1-methyl-1H-pyrazol-4-yl)oxazol-5-yl)methanone] | 1 to 5
3 | Cn1cc(-c2nnc(C(=O)N3CCc4[nH]cnc4[C@H]3c3nc4c(F)cccc4s3)o2)c(C(F)(F)F)n1 [Example 1927, (S)-(4-(4-fluorobenzo[d]thiazol-2-yl)-6,7-dihydro-1H-imidazo[4,5-c]pyridin-5(4H)-yl)(5-(1-methyl-3-(trifluoromethyl)-1H-pyrazol-4-yl)-1,3,4-oxadiazol-2-yl)methanone] | < 0.5
4 | CC(C)(O)c1ncc(C(=O)N2CCc3[nH]cnc3[C@H]2c2nc3ccccc3s2)o1 [Example 1448] | 0.5 to 1
5 | O=C(c1cnc(-c2ccccn2)o1)N1CC2(CC2)c2[nH]cnc2[C@@H]1c1nc2ccccc2s1 [Example 1654, (R)-(4′-(benzo[d]thiazol-2-yl)spiro[cyclopropane-1,7′-imidazo[4,5-c]pyridin]-5′(1′H,4′H,6′H)-yl)(2-(pyridin-2-yl)oxazol-5-yl)methanone] | 1 to 5
6 | O=C(c1nnc(-c2cnn(CC(F)F)c2)o1)N1CCc2[nH]cnc2[C@@H]1c1nc2ccccc2s1 [Example 1872, (R)-(4-(benzo[d]thiazol-2-yl)-6,7-dihydro-1H-imidazo[4,5-c]pyridin-5(4H)-yl)(5-(1-(2,2-difluoroethyl)-1H-pyrazol-4-yl)-1,3,4-oxadiazol-2-yl)methanone] | 1 to 5
7 | O=C(Cc1nc(C(F)(F)F)cs1)N1CCc2[nH]cnc2[C@H]1c1nc2ccccc2s1 [Example 1033] | 0.5 to 1
8 | COc1cccc(/C=C/C(=O)N2CCc3[nH]cnc3[C@H]2c2nc3ccccc3s2)c1 [Example 1011] | 0.5 to 1
9 | CC(F)c1nc(C(F)F)c(C(=O)N2CCc3[nH]cnc3[C@H]2c2nc3c(F)cccc3s2)o1 (single isomer, unassigned) [Example 2074] | < 0.5
10 | Cn1cc(-c2nnc(C(=O)N3CCc4[nH]cnc4[C@@H]3c3nc4c(F)cccc4s3)o2)cn1 [Example 1727, (R)-(4-(4-fluorobenzo[d]thiazol-2-yl)-6,7-dihydro-1H-imidazo[4,5-c]pyridin-5(4H)-yl)(5-(1-methyl-1H-pyrazol-4-yl)-1,3,4-oxadiazol-2-yl)methanone] | 1 to 5
11 | O=C(c1ccno1)N1CCc2[nH]cnc2[C@@H]1c1nc2ccccc2s1 [Example 1124, (R)-(4-(benzo[d]thiazol-2-yl)-6,7-dihydro-1H-imidazo[4,5-c]pyridin-5(4H)-yl)(isoxazol-5-yl)methanone] | > 5
12 | COc1ccn2ncc(C(=O)N3CCc4[nH]cnc4[C@H]3c3nc4c(F)cccc4s3)c2c1 [Example 1197, (S)-(4-(4-fluorobenzo[d]thiazol-2-yl)-6,7-dihydro-1H-imidazo[4,5-c]pyridin-5(4H)-yl)(5-methoxypyrazolo[1,5-a]pyridin-3-yl)methanone] | 0.5 to 1
13 | O=C(CC1CCC1)N1CCc2[nH]cnc2[C@H]1c1nc2ccccc2s1 [Example 1307] | < 0.5
14 | Cn1nc(C(F)F)cc1C(=O)N1CCc2[nH]cnc2[C@H]1c1nc2c(F)cccc2s1 [Example 1731, (S)-(3-(difluoromethyl)-1-methyl-1H-pyrazol-5-yl)(4-(4-fluorobenzo[d]thiazol-2-yl)-6,7-dihydro-1H-imidazo[4,5-c]pyridin-5(4H)-yl)methanone] | < 0.5
15 | O=C(c1nnc(-c2cc[nH]n2)o1)N1CCc2[nH]cnc2[C@@H]1c1nc2ccccc2s1 [Example 1900, (R)-(5-(1H-pyrazol-3-yl)-1,3,4-oxadiazol-2-yl)(4-(benzo[d]thiazol-2-yl)-6,7-dihydro-1H-imidazo[4,5-c]pyridin-5(4H)-yl)methanone] | 1 to 5
16 | O=C(c1cncs1)N1CCc2[nH]cnc2[C@@H]1c1nc2ccc(Br)cc2[nH]1 [Example 948, (R)-(4-(6-bromo-1H-benzo[d]imidazol-2-yl)-6,7-dihydro-1H-imidazo[4,5-c]pyridin-5(4H)-yl)(thiazol-5-yl)methanone] | 1 to 5
17 | O=C(c1conc1C(F)(F)F)N1CCc2[nH]cnc2[C@H]1c1nc2c(F)cccc2s1 [Example 1635, (S)-(4-(4-fluorobenzo[d]thiazol-2-yl)-6,7-dihydro-1H-imidazo[4,5-c]pyridin-5(4H)-yl)(3-(trifluoromethyl)isoxazol-4-yl)methanone] | < 0.5
18 | Cc1nnc(CCC(=O)N2CCc3[nH]cnc3[C@H]2c2nc3ccccc3s2)s1 [Example 1019] | 0.5 to 1
19 | O=C(c1ncn2ccccc12)N1CCc2[nH]cnc2[C@@H]1c1nc2c(F)cccc2s1 [Example 1144, (R)-(4-(4-fluorobenzo[d]thiazol-2-yl)-6,7-dihydro-1H-imidazo[4,5-c]pyridin-5(4H)-yl)(imidazo[1,5-a]pyridin-1-yl)methanone] | > 5
20 | CC(C)(O)c1ncc(C(=O)N2CCc3[nH]cnc3[C@H]2c2nc3c(F)cccc3s2)o1 [Example 1483, (S)-(4-(4-fluorobenzo[d]thiazol-2-yl)-6,7-dihydro-1H-imidazo[4,5-c]pyridin-5(4H)-yl)(2-(2-hydroxypropan-2-yl)oxazol-5-yl)methanone] | 0.5 to 1
21 | O=C(c1cnn(CC(F)(F)F)c1C(F)F)N1CCc2[nH]cnc2[C@H]1c1nc2c(F)cccc2s1 [Example 1975] | 1 to 5
22 | O=C(c1cnn2ccc(F)cc12)N1CCc2[nH]cnc2[C@@H]1c1nc2c(F)cccc2s1 [Example 1169, (R)-(4-(4-fluorobenzo[d]thiazol-2-yl)-6,7-dihydro-1H-imidazo[4,5-c]pyridin-5(4H)-yl)(5-fluoropyrazolo[1,5-a]pyridin-3-yl)methanone] | 1 to 5
23 | O=C(c1cncs1)N1CCc2[nH]cnc2[C@@H]1c1nc2ccccc2[nH]1 [Example 915, (R)-(4-(1H-benzo[d]imidazol-2-yl)-6,7-dihydro-1H-imidazo[4,5-c]pyridin-5(4H)-yl)(thiazol-5-yl)methanone] | > 5
24 | O=C(c1oc(C2CC2)nc1C(F)F)N1CCc2[nH]cnc2[C@@H]1c1nc2ccccc2s1 [Example 1622, (R)-(4-(benzo[d]thiazol-2-yl)-6,7-dihydro-1H-imidazo[4,5-c]pyridin-5(4H)-yl)(2-cyclopropyl-4-(difluoromethyl)oxazol-5-yl)methanone] | < 0.5
25 | O=C(c1cncs1)N1CCc2[nH]cnc2[C@@H]1c1nc2ccccc2s1 [Example 1060, (R)-(4-(benzo[d]thiazol-2-yl)-6,7-dihydro-1H-imidazo[4,5-c]pyridin-5(4H)-yl)(thiazol-5-yl)methanone] | > 5
26 | CC(C)(O)c1nc(Br)c(C(=O)N2CCc3[nH]cnc3[C@@H]2c2nc3c(F)cccc3s2)s1 [Example 2094, (R)-(4-bromo-2-(2-hydroxypropan-2-yl)thiazol-5-yl)(4-(4-fluorobenzo[d]thiazol-2-yl)-6,7-dihydro-1H-imidazo[4,5-c]pyridin-5(4H)-yl)methanone] | 1 to 5
27 | Cc1ccc2c(C(=O)N3CCc4[nH]cnc4[C@@H]3c3nc4c(F)cccc4s3)cnn2c1 [Example 1174, (R)-(4-(4-fluorobenzo[d]thiazol-2-yl)-6,7-dihydro-1H-imidazo[4,5-c]pyridin-5(4H)-yl)(6-methylpyrazolo[1,5-a]pyridin-3-yl)methanone] | 1 to 5

Same assay, conditions: A375 cells expressing human R408W PAH; 24 hrs with compound; 13C-Tyrosine by LC-MS; average where tested multiple times; read-out: AC50

Row | Compound | AC50 [µM]
28 | CS(=O)(=O)N1CC(C(=O)N2CCc3[nH]cnc3C2c2nc3ccccc3s2)C1 (centres unmarked) | 1 to 5
29 | O=C(c1nnc(-c2ccccn2)o1)N1CCCc2[nH]cnc2C1c1nc2ccccc2[nH]1 (centres unmarked) | > 5
30 | O=C(c1cnn2cccc(F)c12)N1CCc2[nH]cnc2[C@H]1c1nc2cc(F)ccc2s1 (single isomer, unassigned) | 1 to 5
31 | Cc1nnc(CC(=O)N2CCc3[nH]cnc3[C@H]2c2nc3ccccc3[nH]2)o1 (single isomer, unassigned) | > 5
32 | COC(=O)N1CC(C(=O)N2CCc3[nH]cnc3[C@@H]2c2nc3c(F)cccc3s2)C1 (single isomer, unassigned) | > 5
33 | O=C(c1nc2ccccc2s1)N1CCc2[nH]cnc2C1c1nc2ccc(F)cc2[nH]1 (centres unmarked) | 1 to 5
34 | Cc1nnc(CCC(=O)N2CCc3[nH]cnc3C2c2nc3cc(F)ccc3s2)s1 (centres unmarked) | 1 to 5
35 | O=C(C1CN(CC(F)(F)F)C1)N1CCc2[nH]cnc2[C@H]1c1nc2ccccc2s1 (single isomer, unassigned) | 1 to 5
36 | O=C(c1ccn[nH]1)N1CCc2[nH]cnc2C1c1nc2ccccc2s1 (centres unmarked) | > 5
37 | CC(C)(O)c1nc(C(=O)N2CCc3[nH]cnc3C2c2nc3ccccc3s2)no1 (centres unmarked) | 1 to 5
38 | CC(C)(O)c1noc(C(=O)N2CCc3[nH]cnc3C2c2nc3ccccc3s2)n1 (centres unmarked) | 1 to 5
39 | O=C(c1n[nH]c2ccccc12)N1CCc2[nH]cnc2C1c1nc2ccc(F)cc2s1 (centres unmarked) | 1 to 5
40 | O=C(C1CC1)N1CCc2[nH]cnc2C1c1nc2cc(F)ccc2s1 (centres unmarked) | 1 to 5
41 | O=C(c1cc2ccccn2n1)N1CCc2[nH]cnc2[C@H]1c1nc2ccccc2[nH]1 [(S)-(4-(1H-benzo[d]imidazol-2-yl)-6,7-dihydro-1H-imidazo[4,5-c]pyridin-5(4H)-yl)(pyrazolo[1,5-a]pyridin-2-yl)methanone] | > 5
